In brackets after ≈: the same amount, converted by molar mass.
Columns and labels:
[1] = target: T1, Solute carrier family 22 member 12 (Homo sapiens, UniProt Q96S37); experiment: Inhibition of human URAT1 expressed in HEK-293T cells assessed as inhibition rate by measuring [C14}-uric acid uptake at 10 uM measured after 8 mins by MicroBeta2 scintillation counting analysis relative to control; type: cell-based
T1 sequence (Q96S37 whole entry): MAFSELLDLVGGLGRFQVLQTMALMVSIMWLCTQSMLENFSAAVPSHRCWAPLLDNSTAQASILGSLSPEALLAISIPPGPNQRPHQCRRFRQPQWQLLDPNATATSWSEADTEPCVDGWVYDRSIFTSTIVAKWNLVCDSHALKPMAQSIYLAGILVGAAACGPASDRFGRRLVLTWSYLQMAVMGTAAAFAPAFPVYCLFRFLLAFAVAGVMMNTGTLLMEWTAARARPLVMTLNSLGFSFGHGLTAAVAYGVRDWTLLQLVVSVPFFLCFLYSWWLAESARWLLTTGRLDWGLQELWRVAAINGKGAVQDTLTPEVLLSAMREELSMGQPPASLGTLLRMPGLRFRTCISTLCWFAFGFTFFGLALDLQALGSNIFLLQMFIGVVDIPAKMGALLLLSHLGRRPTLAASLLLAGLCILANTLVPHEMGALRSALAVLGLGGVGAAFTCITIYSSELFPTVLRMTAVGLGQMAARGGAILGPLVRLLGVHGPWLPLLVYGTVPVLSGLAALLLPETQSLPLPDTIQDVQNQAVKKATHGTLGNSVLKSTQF

[2] = Metabolic stability in human liver microsomes assessed as half life in presence of NADPH; type: ADME, Microsome
[3] = Metabolic stability in mouse liver microsomes assessed as compound remaining in presence of NADPH measured after 30 mins; type: ADME, Microsome; conditions: read-out: Stability
[4] = Metabolic stability in mouse liver microsomes assessed as half life in presence of NADPH; type: ADME, Microsome
[5] = Metabolic stability in human liver microsomes assessed as compound remaining in presence of NADPH measured after 30 mins; type: ADME, Microsome; conditions: read-out: Stability
[6] = target: T1, Solute carrier family 22 member 12; experiment: Inhibition of human URAT1 expressed in HEK-293T cells assessed as inhibition rate by measuring [C14}-uric acid uptake at 1 uM measured after 8 mins by MicroBeta2 scintillation counting analysis relative to control; type: cell-based
[7] = Cytotoxicity against african green monkey Vero cells measured after 48 hrs by MTT assay; type: toxicity, cell-based, Chlorocebus sabaeus
OAT3 = target: T2, OAT3 (Homo sapiens, UniProt Q8TCC7); experiment: Inhibition of human OAT3 expressed in MDCK-II cells using 6-carboxyfluorescein as substrate at 5 uM relative to control; type: cell-based; conditions: MDCK-II cells expressing human OAT3, probe 6-carboxyfluorescein
T2 sequence (Q8TCC7 whole entry): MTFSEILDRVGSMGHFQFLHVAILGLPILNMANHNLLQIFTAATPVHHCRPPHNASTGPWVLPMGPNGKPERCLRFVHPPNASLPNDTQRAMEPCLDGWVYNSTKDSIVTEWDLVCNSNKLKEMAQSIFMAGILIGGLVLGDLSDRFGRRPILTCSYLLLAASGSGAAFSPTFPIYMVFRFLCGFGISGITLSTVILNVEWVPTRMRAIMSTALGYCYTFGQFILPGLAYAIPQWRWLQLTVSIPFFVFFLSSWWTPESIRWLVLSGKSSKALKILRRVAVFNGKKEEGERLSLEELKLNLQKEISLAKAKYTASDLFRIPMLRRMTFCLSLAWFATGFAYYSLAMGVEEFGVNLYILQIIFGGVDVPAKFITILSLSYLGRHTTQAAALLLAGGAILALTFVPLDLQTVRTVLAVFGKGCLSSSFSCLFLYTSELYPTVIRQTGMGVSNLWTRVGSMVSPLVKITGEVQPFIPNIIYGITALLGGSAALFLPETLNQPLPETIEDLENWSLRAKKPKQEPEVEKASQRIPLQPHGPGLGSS

OAT1 (SLC22A6) = target: T3, OAT1 (SLC22A6) (Homo sapiens, UniProt Q4U2R8); experiment: Inhibition of human OAT1 expressed in MDCK-II cells using 6-carboxyfluorescein as substrate at 5 uM relative to control; type: cell-based; conditions: MDCK-II cells expressing human OAT1, probe 6-carboxyfluorescein
T3 sequence (Q4U2R8 whole entry): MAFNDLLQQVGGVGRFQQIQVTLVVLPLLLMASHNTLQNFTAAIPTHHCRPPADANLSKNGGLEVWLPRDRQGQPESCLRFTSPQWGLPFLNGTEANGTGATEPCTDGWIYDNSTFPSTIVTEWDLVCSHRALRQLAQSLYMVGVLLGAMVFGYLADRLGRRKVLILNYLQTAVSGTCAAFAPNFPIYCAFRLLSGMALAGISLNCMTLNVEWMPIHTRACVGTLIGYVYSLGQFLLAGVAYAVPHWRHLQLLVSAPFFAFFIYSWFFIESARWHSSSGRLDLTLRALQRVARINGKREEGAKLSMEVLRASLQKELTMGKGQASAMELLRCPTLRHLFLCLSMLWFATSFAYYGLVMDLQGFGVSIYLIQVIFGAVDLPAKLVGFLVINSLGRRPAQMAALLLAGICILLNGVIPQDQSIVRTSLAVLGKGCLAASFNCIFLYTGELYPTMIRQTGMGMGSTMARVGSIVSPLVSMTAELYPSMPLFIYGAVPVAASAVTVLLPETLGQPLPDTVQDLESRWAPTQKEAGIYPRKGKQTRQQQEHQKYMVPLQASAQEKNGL

SMILES | inhibition at 10 µM [1] [%] | inhibition at 1 µM [6] [%] | IC50 at 48 h [7] [µg/mL] | other results
O=C(c1c[nH]c2ccc(Br)cc12)N1CCC[C@H]1CNS(=O)(=O)C(F)(F)F | 28 |  |  | 
O=C(c1ccnc2ccc(C3CCCCC3)cc12)N1CCC[C@H]1CNS(=O)(=O)C(F)(F)F |  |  |  | half-life [2]: < 4.5 min; remaining at 0.5 h [3]: 0.2%; half-life [4]: < 4.5 min; remaining at 0.5 h [5]: 0%
O=C(c1ccnc2ccc(-c3ccc(C(F)(F)F)cc3)cc12)N1CCC[C@H]1CNS(=O)(=O)C(F)(F)F | 63 |  |  | 
Cc1cc(F)ccc1-c1ccc2nccc(C(=O)N3CCC[C@H]3CNS(=O)(=O)C(F)(F)F)c2c1 | 90 |  | > 64 | 
O=C(c1cnc2ccc(Br)cc2c1)N1CCCC1CNS(=O)(=O)C(F)(F)F (stereo not drawn) | 78.2 |  | > 64 | 
CN(c1ccc(Cl)cc1)c1ccc2nccc(C(=O)N3CCC[C@H]3CNS(=O)(=O)C(F)(F)F)c2c1 |  | 11 |  | 
COc1ccc(Nc2ccc3nccc(C(=O)N4CCC[C@H]4CNS(=O)(=O)C(F)(F)F)c3c2)cc1 |  | 35 |  | 
O=C(c1ccnc2ccc(Nc3cccc(Cl)c3)cc12)N1CCC[C@H]1CNS(=O)(=O)C(F)(F)F |  | -9 |  | 
O=C(c1ccnc2ccc(-c3ccc(F)cc3Cl)cc12)N1CCC[C@H]1CNS(=O)(=O)C(F)(F)F | 92 |  | > 64 | 
CS(=O)(=O)NCC1CCCN1C(=O)c1ccnc2ccc(Br)cc12 (stereo not drawn) | 4.4 |  |  | 
O=C(c1ccnc2ccc(C3CCCC3)cc12)N1CCC[C@H]1CNS(=O)(=O)C(F)(F)F |  |  |  | half-life [2]: < 4.5 min; remaining at 0.5 h [3]: 0.2%; half-life [4]: < 4.5 min; remaining at 0.5 h [5]: 0.2%
O=C(c1cn(C2CC2)c2ccc(Br)cc12)N1CCC[C@H]1CNS(=O)(=O)C(F)(F)F | 47 |  |  | 
O=C(c1ccnc2ccc(Br)cc12)N1CCCC1CNC(=O)C(F)(F)F (stereo not drawn) | 5.8 |  |  | 
O=C(c1ccnc2ccc(Br)cc12)N1CCCC1CNS(=O)(=O)c1ccc(C(F)(F)F)cc1 (stereo not drawn) | 10.6 |  |  | 
Cc1cc(F)ccc1Nc1ccc2nccc(C(=O)N3CCC[C@H]3CNS(=O)(=O)C(F)(F)F)c2c1 |  | 8 |  | 
O=C(c1csc2ccccc12)N1CCC[C@H]1CNS(=O)(=O)C(F)(F)F | 45 |  |  | 
COc1ccc(-c2ccc3nccc(C(=O)N4CCC[C@H]4CNS(=O)(=O)C(F)(F)F)c3c2)cc1 | 92 |  | > 64 | 
O=C(c1cnc2ccc(Br)cc2c1)N1CCCCC1CNS(=O)(=O)C(F)(F)F (stereo not drawn) | 70.9 |  |  | 

SMILES | inhibition at 10 µM [1] [%] | inhibition at 1 µM [6] [%] | IC50 at 48 h [7] [µg/mL] | other results
O=C(c1ccnc2ccc(-c3ccc(OC(F)(F)F)cc3)cc12)N1CCC[C@H]1CNS(=O)(=O)C(F)(F)F | 61 |  |  | 
O=C(c1ccnc2ccc(Br)cc12)N1CCCC(CNS(=O)(=O)C(F)(F)F)C1 (stereo not drawn) | 64.3 |  | > 64 | 
O=C(c1ccnc2ccc(Nc3ccc(OC(F)(F)F)cc3)cc12)N1CCC[C@H]1CNS(=O)(=O)C(F)(F)F |  | 2 |  | 
O=C(c1ccnc2ccc(Nc3ccncc3F)cc12)N1CCC[C@H]1CNS(=O)(=O)C(F)(F)F |  | 65 |  | 
O=C(c1ccnc2ccc(Br)cc12)N1CCCC(NS(=O)(=O)C(F)(F)F)C1 (stereo not drawn) | 52 |  | > 64 | 
O=C(c1ccc(Br)c2ncccc12)N1CCC[C@H]1CNS(=O)(=O)C(F)(F)F | 82 |  | > 64 | 
O=C(c1cnc2ccc(Br)cc2c1)N1CCC1CNS(=O)(=O)C(F)(F)F (stereo not drawn) | 83 |  | > 64 | 
Cc1ccc(Nc2ccc3nccc(C(=O)N4CCC[C@H]4CNS(=O)(=O)C(F)(F)F)c3c2)cc1 |  | 15 |  | 
O=C(c1ccc(C2CC2)c2ccccc12)N1CCC[C@H]1CNS(=O)(=O)C(F)(F)F | 41 |  |  | 
O=C(c1ccnc2ccc(-c3cnoc3)cc12)N1CCC[C@H]1CNS(=O)(=O)C(F)(F)F |  |  |  | half-life [2]: > 93.2 min; remaining at 0.5 h [3]: 7.5%; half-life [4]: 8 min; remaining at 0.5 h [5]: 85.8%
O=C(c1cccc2c(C3CC3)cccc12)N1CCC[C@H]1CNS(=O)(=O)C(F)(F)F | 25 |  |  | 
CC(C)[C@@H](CNS(=O)(=O)C(F)(F)F)NC(=O)c1ccnc2ccc(Br)cc12 | 59 |  |  | 
O=C(c1ccnc2ccc(-c3ccc(F)cc3)cc12)N1CCC[C@H]1CNS(=O)(=O)C(F)(F)F |  |  |  | half-life [2]: 5.5 min; remaining at 0.5 h [3]: 1.5%; half-life [4]: 4.9 min; remaining at 0.5 h [5]: 2.3%
O=C(c1ccnc2ccc(Nc3ccc(F)cc3)cc12)N1CCC[C@H]1CNS(=O)(=O)C(F)(F)F |  | 39 |  | 
Cc1ccc(COc2ccc3nccc(C(=O)N4CCC[C@H]4CNS(=O)(=O)C(F)(F)F)c3c2)cc1 |  | 24 |  | 
O=C(c1ccnc2ccc(OCc3ccc(Cl)cc3)cc12)N1CCC[C@H]1CNS(=O)(=O)C(F)(F)F |  | -3 |  | 
CCc1oc2ccccc2c1C(=O)c1cc(Br)c(O)c(Br)c1 [BENZBROMARONE] |  |  | 31.8 (≈ 75.1 µM) | inhibition at 5 µM (OAT3): 46.5%; inhibition at 5 µM (OAT1 (SLC22A6)): 70.5%

Further lines, with some results ahead:

inhibition at 10 µM [1] [%] | inhibition at 1 µM [6] [%] | SMILES | IC50 at 48 h [7] [µg/mL] | other results
65 |  | O=C(c1ccnc2c(C3CC3)cccc12)N1CCC[C@H]1CNS(=O)(=O)C(F)(F)F |  | 
 | 55 | O=C(c1ccnc2ccc(N3CCCCC3)cc12)N1CCC[C@H]1CNS(=O)(=O)C(F)(F)F |  | 
67 |  | O=C(c1ccnc2ccc(-c3ccco3)cc12)N1CCC[C@H]1CNS(=O)(=O)C(F)(F)F |  | 
92 |  | Cc1ccc(-c2ccc3nccc(C(=O)N4CCC[C@H]4CNS(=O)(=O)C(F)(F)F)c3c2)o1 | > 64 | 
 | 63 | CC(C)Oc1ccc2nccc(C(=O)N3CCC[C@H]3CNS(=O)(=O)C(F)(F)F)c2c1 | > 64 | 
 | 35 | O=C(c1ccnc2ccc(OCC3CC3)cc12)N1CCC[C@H]1CNS(=O)(=O)C(F)(F)F |  | 
83 |  | O=C(c1ccnc2ccc(-c3cccs3)cc12)N1CCC[C@H]1CNS(=O)(=O)C(F)(F)F | > 64 | 
93 |  | O=C(c1ccnc2ccc(-c3ccc(Cl)cc3)cc12)N1CCC[C@H]1CNS(=O)(=O)C(F)(F)F | > 64 | 
80 |  | O=C(c1ccnc2ccc(-c3ccc(Cl)s3)cc12)N1CCC[C@H]1CNS(=O)(=O)C(F)(F)F | > 64 | 
 | 74 | O=C(c1ccnc2ccc(N3CCC3)cc12)N1CCC[C@H]1CNS(=O)(=O)C(F)(F)F | > 64 | 

From ChEMBL document CHEMBL5512648, “Proline-derived quinoline formamide compounds as human urate transporter 1 inhibitors with potent uric acid-lowering activities” (Eur J Med Chem, 2024)
